Numbers after ± are expanded uncertainties.
Assays:
[1] = 101.33 kPa, Liquid; for speed of sound: Pulse-echo method; for mass density: Vibrating tube method
[2] = molar heat capacity at constant pressure; settings: 101.33 kPa, Liquid, Small sample (50 mg) DSC

Row | SMILES | speed of sound ([1]; 293.15 K) | mass density ([1]; 293.15 K) | speed of sound ([1]; 298.15 K) | mass density ([1]; 298.15 K) | speed of sound ([1]; 303.15 K) | mass density ([1]; 303.15 K) | speed of sound ([1]; 308.15 K) | mass density ([1]; 308.15 K) | molar heat capacity at constant pressure ([2]; 293.15 K) | molar heat capacity at constant pressure ([2]; 298.15 K) | molar heat capacity at constant pressure ([2]; 303.15 K) | molar heat capacity at constant pressure ([2]; 308.15 K)
1 | c1ccncc1 [pyridine] | 1442 ± 1.2 m/s | 983.191 ± 1 kg/m3 | 1417.8 ± 1.2 m/s | 978.249 ± 1 kg/m3 | 1398 ± 1.2 m/s | 973.224 ± 1 kg/m3 | 1377.1 ± 1.2 m/s | 968.166 ± 1 kg/m3 | 130.49 ± 2 J/K/mol | 131.74 ± 2 J/K/mol | 132.71 ± 2.1 J/K/mol | 133.82 ± 2.1 J/K/mol
2 | CCn1cc[n+](C)c1.F[B-](F)(F)F [1-ethyl-3-methylimidazolium tetrafluoroborate] | 1631.1 ± 2.2 m/s | 1283.89 ± 1.7 kg/m3 | 1619.4 ± 2.1 m/s | 1279.91 ± 1.7 kg/m3 | 1607.6 ± 2.1 m/s | 1276.26 ± 1.7 kg/m3 | 1596.3 ± 2.1 m/s | 1272.07 ± 1.7 kg/m3 | 303.73 ± 4.7 J/K/mol | 305.35 ± 4.7 J/K/mol | 306.16 ± 4.7 J/K/mol | 308.94 ± 4.8 J/K/mol
3 | Cc1cccnc1 [3-methylpyridine] | 1445.9 ± 1.2 m/s | 956.581 ± 1 kg/m3 | 1424 ± 1.2 m/s | 952.002 ± 1 kg/m3 | 1404.1 ± 1.2 m/s | 947.449 ± 1 kg/m3 | 1384 ± 1.2 m/s | 942.831 ± 1 kg/m3 | 156.05 ± 2.4 J/K/mol | 158.75 ± 2.5 J/K/mol | 160.83 ± 2.5 J/K/mol | 160.96 ± 2.5 J/K/mol
4 | Cc1ccccc1N [2-methylaniline] | 1622.2 ± 1.3 m/s | 998.431 ± 1 kg/m3 | 1602.3 ± 1.3 m/s | 994.358 ± 1 kg/m3 | 1577.7 ± 1.3 m/s | 990.23 ± 1 kg/m3 | 1558.2 ± 1.3 m/s | 986.064 ± 1 kg/m3 | 215.96 ± 3.4 J/K/mol | 217.16 ± 3.4 J/K/mol | 218.43 ± 3.4 J/K/mol | 219.52 ± 3.4 J/K/mol

The next lines start with the values.

Row | speed of sound ([1]; 293.15 K) | mass density ([1]; 293.15 K) | speed of sound ([1]; 298.15 K) | mass density ([1]; 298.15 K) | speed of sound ([1]; 303.15 K) | mass density ([1]; 303.15 K) | speed of sound ([1]; 308.15 K) | mass density ([1]; 308.15 K) | molar heat capacity at constant pressure ([2]; 293.15 K) | molar heat capacity at constant pressure ([2]; 298.15 K) | molar heat capacity at constant pressure ([2]; 303.15 K) | molar heat capacity at constant pressure ([2]; 308.15 K) | SMILES
5 | 1451.1 ± 1.2 m/s | 955.099 ± 1 kg/m3 | 1431.5 ± 1.2 m/s | 950.179 ± 1 kg/m3 | 1410.7 ± 1.2 m/s | 945.413 ± 1 kg/m3 | 1389.9 ± 1.2 m/s | 940.821 ± 1 kg/m3 | 155.88 ± 2.4 J/K/mol | 158.52 ± 2.5 J/K/mol | 160.84 ± 2.5 J/K/mol | 160.83 ± 2.5 J/K/mol | Cc1ccncc1 [4-methylpyridine]
6 | 1400.5 ± 2.1 m/s | 944.401 ± 1.2 kg/m3 | 1380.1 ± 2.1 m/s | 939.802 ± 1.2 kg/m3 | 1361 ± 2.1 m/s | 935.117 ± 1.2 kg/m3 | 1339.9 ± 2.1 m/s | 930.414 ± 1.2 kg/m3 | 157.07 ± 2.4 J/K/mol | 158.86 ± 2.5 J/K/mol | 160.14 ± 2.5 J/K/mol | 160.66 ± 2.5 J/K/mol | Cc1ccccn1 [2-methylpyridine]

Reference: the NIST ThermoML archive (doi:10.1021/je4004965)
